Reference: patent US7879795B2, “Enhancement of tigecycline potency using efflux pump inhibitors” (Mpex Pharmaceuticals, Inc., priority 2004, dated 2011)
Where two headings read alike, the source gives them in different places.

Tests used:
[1] = tested on: Enterobacter aerogenes 19; experiment: Antibiotic MIC with fixed concentration of compound 21, Enterobacter aerogenes 19; assay type: cell-based
Citrobacter freundii 13 = experiment: Antibiotic MIC with fixed concentration of compound 21, Citrobacter freundii 13; assay type: cell-based
Description: (§1) To further characterize the clinical potential of tigecycline/EPI combinations, the microbiological activity of tigecycline in combination with compound 21 was investigated using clinical isolates of P. aeruginosa and other gram-negative bacteria. In several experiments, described below, the impact of a fixed concentration of compound 21 (2.5 μg/ml) on susceptibility to tigecycline was determined.
(§2) The impact of compound 21 on the activity of tigecycline against representative members of Enterobacteriacaea was also tested.

Klebsiella pneumonia 79 = experiment: Antibiotic MIC with fixed concentration of compound 21, Klebsiella pneumonia 79; assay type: cell-based
Description: as §1, §2

Klebsiella pneumonia 73 = experiment: Antibiotic MIC with fixed concentration of compound 21, Klebsiella pneumonia 73; assay type: cell-based
Description: as §1, §2

Enterobacter cloacae 25 = experiment: Antibiotic MIC with fixed concentration of compound 21, Enterobacter cloacae 25; assay type: cell-based
[2] = Tissue levels in rat six-hour after 8.4 mg/kg IV bolus; assay type: in vivo; settings: rat kidney, liver and lung; 8.4 mg/kg IV bolus; in words
Description: Tissue levels of compounds 1, 2, 3 and 4 were evaluated in kidney, liver and lung six-hour after 8.4 mg/kg IV bolus administration. FIG. 13 depicts the levels as a function of time.
Compound 67, which is the expected metabolite of proteolytic intracellular degradation of compound 3, was detected in rat tissues after IV infusion, confirming the tissue-specific degradation of compound 3 (Tables 9A, B).

[3] = tested on: P. aeruginosa, PAM1723, overexpressing the MexAB-OprM efflux pump; experiment: Levofloxacin potentiation checkerboard assay (broth microdilution); assay type: cell-based
Description: Stock solution was stored at −80° C.
The checkerboard assay was performed in microtiter plates. […] EPIs were diluted in the y axis, each row containing an equal concentration of an EPI. The result of these manipulations was that each well of the microtiter plate contains a unique combination of concentrations of the two agents. The assay was performed in MHB with a final bacterial inoculum of 5×10^5 CFU/ml (from an early-log phase culture). Microtiter plates were incubated during 20 h at 35° C. and were read using a microtiterplate reader (Molecular Devices) at 650 nm as well as visual observation using a microtiter plate-reading mirror.

[4] = In vitro stability in rat serum and tissue homogenates (LC/MS/MS); assay type: in vitro ADME; settings: in words
Description: To test the stability of the compounds in vitro, samples were prepared and analyzed by LC/MS/MS according to the following procedure.
Homogenization: A chunk of fresh tissue was weighed and mixed with saline at 1:1 ratio (w/v) in a 12×75 mm polypropylene round bottom tube. The mixture was homogenized with a Polytron homogenizer (on ice, 3×10 seconds with 10 second intervals at the setting of 7).
Incubation and TCA-precipitation: An appropriate amount of a tissue homogenate was pre-warmed at 37° C. for 2 minutes in an Eppendorf tube. The compound to be tested was added to the tube to a final concentration of 2 μg/ml, mixed, and a 60 μl aliquot was immediately taken (as 0 hour sample) and mixed with 120 μl of 4% TCA (trichloroacetic acid) in an Eppendorf tube. The temperature of the tube containing the rest of the tissue sample was returned to 37° C. for incubation. Later, samples were taken as scheduled and mixed with TCA as described above. Plasma and lavage samples were directly incubated with the compounds without addition of saline and homogenization.
LC/MS/MS sample vial preparation: TCA-precipitated sample tubes were vortexed for 30 seconds, centrifuged in a microfuge at top speed (13.2 k rpm) for 5 minutes. The supernatant was collected. The pH was neutralized to about 3.5 with ammonium acetate buffer. The sample (45 μl) was transferred to a glass LC/MS/MS vial (Kimble, 11 mm, 1.5 ml) and 5 μl of an internal standard was added to a final concentration of 500 ng/ml. LC/MS/MS analysis was performed in Chemistry Department of San Diego State University.
LC/MS/MS protocol: Thermo-Finnigan TSQ Quantum triple sector mass spectrometer with electrospray (ESI) ionization was used to analyze the samples. The operation conditions were: Mobile phase of pH 3.00 water/formic acid: acetonitrile-methanol (45%:5%:50% by volume); Thermo-Keystone Betabasic C-18 column (2.1 mm×50 mm) operated at 0.100 mL/min.
Many proteases responsible for degrading EPI compounds are located in […]. Lysozymes typically have an acidic pH (about 4.8-5), whereas the pH in tissue homogenates that were prepared was higher (kidney, pH 6.8; liver, pH 6.6; and lung, pH 7.5). To test the effect of tissue homogenates closer to physiological conditions, the pH was lowered to about 6 by adding acetic acid to the tissue homogenates and compound stability was tested. FIG. 2 depicts the stability of compounds 1 and 3 at different pH. […] The pH-dependent degradation of compound 3 was especially evident in kidney homogenates.
FIG. 4 is a bar graph depicting the stability of compound 3 in the supernatant and pellet of kidney tissue homogenates.

[5] = Rat serum pharmacokinetics after 2-hour IV infusion; assay type: in vivo
Description: Rat serum pharmacokinetics of compounds 1, 3, 7, and 21 was evaluated after 2-hour IV infusion of 1 mg/ml EPI solution in 0.9% saline. Total infused dose was 10 mg/kg. FIG. 12 depicts the serum concentrations as a function of time. A two-compartment model was used to fit the data and calculate PK parameters.

[6] = Tissue levels after 2-hour IV infusion in rats; assay type: in vivo, rat; settings: for concentration at 6 h: 4 h after end of 2-hour IV infusion; for concentration at 6 h / concentration at 2 h: 10 mg/kg; for 2 h/4 h Ratio: Table 7, 2 h and 6 h; for concentration at 2 h: end of 2-hour IV infusion
Description: Levels of EPIs in various tissues were evaluated after 2-hour IV infusion in rats. The rats received 10 mg/kg IV infusion through FVC. Animals were divided into 2 groups: group 1 was sacrificed immediately after the end of infusion and group 2, 2 h or 4 h after the end of infusion. Tissues from each animal were collected, homogenized and compounds were extracted. Tissues were mixed with saline at 1:1 ratio (v/w) in 12×75 mm polypropylene round bottom tubes. The mixtures were homogenized with a Polytron homogenizer (on ice, 3×10-15 seconds with 30 seconds intervals at the setting of 7). 50 μl of homogenized tissue were immediately transferred to an Eppendorf tube and 2-volumes of 4% TCA were added. After vortexing for 30 seconds, the tubes were centrifuged in a microfuge at top speed (13.2 k rpm) for 5 minutes. The supernatant was collected, and 45 μl of the supernatant was transferred to a glass LC/MS/MS vial (Kimble, 11 mm, 1.5 ml) for analysis, which allowed determination of tissue levels of EPIs at the end of the infusion and 2 h or 4 h later.

PAM1723 = settings: for stability in rat serum: summary of Table 4, in words
Description: Stability in rat and human serum was also evaluated using a bioassay. 320 μg/ml of the test compound was treated with 50% serum for 4 hours.
Bioassays as described in Example 62 and Example 65 were used to evaluate the stability of various compounds in serum and rabbit kidney homogenates.

[7] = tested on: strain PAM1723 of P. aeruginosa; assay type: in vitro ADME
Description: Stability of compounds was also evaluated using a bioassay. The test compound at 320 μg/ml was treated with rabbit kidney supernatant for 0, 0.5, 1 and 2 hours.

In the case of `CC[C@H]1OC(=O)[C@H](C)[C@@H](O[C@H]2C[C@@](C)(OC)[C@@H](O)[C@H](C)O2)[C@H](C)[C@@H](O[C@@H]2O[C@H](C)C[C@H](N(C)C)[C@H]2O)[C@](C)(O)C[C@@H](C)CN(C)[C@H](C)[C@@H](O)[C@]1(C)O` [Azithromycin, reference compound], the Azi (MIC) ([1]; azithromycin alone) is reported as 32 µg/mL, the Azi (MIC) (Citrobacter freundii 13; azithromycin alone) is reported as 8 µg/mL and the Azi (MIC) (Klebsiella pneumonia 79; azithromycin alone) is reported as 64 µg/mL. The Azi (MIC) (Klebsiella pneumonia 73; azithromycin alone) was 16 µg/mL and the Azi (MIC) (Enterobacter cloacae 25; azithromycin alone) was 16 µg/mL.
In the case of `NCCC[C@@H](N)C(=O)N[C@@H](CCc1ccccc1)C(=O)Nc1cnc2ccccc2c1` [Compound 4, 2-(R),5-Diamino-pentanoic acid [3-phenyl-1-(S)-(quinolin-3-ylcarbamoyl)-propyl]-amide], the “tissue levels at 6 hours after IV injection” value [2] is reported as “relatively high levels”, the “Antibiotic (levofloxacin) MIC in the presence of EPI” value (shortened to “Antibiotic (levofloxacin) MIC”) ([3]; EPI 0 μg/ml (levofloxacin alone)) is reported as 2 µg/mL and the “Antibiotic (levofloxacin) MIC” value ([3]; EPI 1.25 μg/ml) is reported as 2 µg/mL. The “Antibiotic (levofloxacin) MIC” value ([3]; EPI 5 μg/ml) was 2 µg/mL, the “Antibiotic (levofloxacin) MIC” value ([3]; EPI 10 μg/ml) was 0.5 µg/mL and the “Antibiotic (levofloxacin) MIC” value ([3]; EPI 20 μg/ml) was 0.06 µg/mL. For the same compound, the “Antibiotic (levofloxacin) MIC” value ([3]; EPI 40 μg/ml) was 0.06 µg/mL, the “Antibiotic (levofloxacin) MIC” value ([3]; EPI 80 μg/ml) was 0.03 µg/mL and the “Antibiotic (levofloxacin) MIC” value ([3]; EPI […]) was 2 µg/mL. The MPC8 ([3]; EPI concentration necessary to increase susceptibility to levofloxacin eight-fold) was 20 µg/mL and the “stability in supernatant of rat kidney tissue homogenates” value [4] was “neither compound 1 nor compound 4 show any instability”.
For `NCCC[C@H](N)C(=O)N[C@H](CCc1ccccc1)C(=O)Nc1ccc2ncccc2c1` [Compound 7, 2-(S),5-Diamino-pentanoic acid [3-phenyl-1-(R)-(quinolin-6-ylcarbamoyl)-propyl]-amide], the “serum PK profile after 2-hour IV infusion” value ([5]; 10 mg/kg, in words) was “best serum PK profile”, the clearance ([5]; serum, 2-hour IV infusion, total dose 10 mg/kg, two-compartment model) was 6.5 mL/min/kg and the concentration at 6 h ([6]; rat kidney) was 960 ng/mL. The “2 h/4 h Ratio” value ([6]; rat kidney) was 57.37, the concentration at 2 h ([6]; rat kidney) was 55400 ng/mL and the concentration at 6 h ([6]; rat liver) was 270 ng/mL. The “2 h/4 h Ratio” value ([6]; rat liver) was 29.85, the concentration at 2 h ([6]; rat liver) was 7960 ng/mL and the concentration at 6 h ([6]; rat lung) was 3170 ng/mL. The “2 h/4 h Ratio” value ([6]; rat lung) was 4.11, the concentration at 2 h ([6]; rat lung) was 13000 ng/mL and the “tissue levels and clearance from tissues after 2-hour IV infusion” value ([6]; rat, in words) was “cleared from tissues relatively fast”.
With `NCCC[C@H](N)C(=O)N[C@@H](CCc1ccc(F)cc1)C(=O)Nc1cnc2ccccc2c1` [Compound 9, 2-(S),5-Diamino-pentanoic acid [3-(4-fluoro-phenyl)-1-(S)-(quinolin-3-ylcarbamoyl)-propyl]amide] the “stability in rat serum” value (PAM1723) was “unstable in rat serum”.
For `CN(C(=O)[C@@H](CCc1ccccc1)NC(=O)[C@@H](N)CCCN)c1cnc2ccccc2c1` [Compound 18, 2-(S),5-Diamino-pentanoic acid [1-(R)-(methyl-quinolin-3-yl-carbamoyl)-3-phenyl-propyl]amide], the “stability in rat serum” value (PAM1723) was “unstable in rat serum”.
In the case of `NCCC[C@H](N)C(=O)N[C@H](CCc1ccccc1)C(=O)Nc1cnc2ccccc2n1` [Compound 19, 2-(S),5-Diamino-pentanoic acid [3-phenyl-1-(R)-(quinoxalin-2-ylcarbamoyl)-propyl]-amide], the “stability in rat serum” value (PAM1723) is reported as “unstable in rat serum”.
With `NCCC[C@H](N)C(=O)N[C@H](CCc1ccccc1)C(=O)Nc1cccc(-c2ccccc2)c1` [Compound 26] the “EPI MPC8 after incubation (h) with rabbit kidney supernatant at 37° C.” value (“EPI MPC8 after incubation (h)” for short) ([7]; 0 h) was 80 µg/mL, the “EPI MPC8 after incubation (h)” value ([7]; 0.5 h) was >80 µg/mL and the “EPI MPC8 after incubation (h)” value ([7]; 1 h) was >80 µg/mL. The “EPI MPC8 after incubation (h)” value ([7]; 2 h) was >80 µg/mL, the “EPI MPC8, Saline (2 hours)” value ([7]; saline control of rabbit kidney supernatant bioassay, 37° C.) was 2.5 µg/mL and the “EPI MPC8 after 4 hours at 37° C., Frosen Human serum” value (PAM1723; Table 4, human serum) was 2.5 µg/mL. The “EPI MPC8 after 4 hours at 37° C., Frozen Rat serum” value (PAM1723; Table 4, rat serum) was 2.5 µg/mL and the “EPI MPC8 after 4 hours at 37° C., Saline” value (PAM1723; Table 4, saline) was 2.5 µg/mL.
For `NCCC[C@H](N)C(=O)N[C@H](CCc1ccccc1)C(=O)Nc1ccc2cccnc2c1` [Compound 28, 2-(S),5-Diamino-pentanoic acid [3-phenyl-1-(R)-(quinolin-7-ylcarbamoyl)-propyl]-amide], the “stability in rat serum” value (PAM1723) was “unstable in rat serum”.
With `NCCC[C@H](N)C(=O)N[C@H](CCc1ccccc1)C(=O)Nc1ncc(Cl)cc1Cl` [Compound 36, 2-(S),5-Diamino-pentanoic acid [1-(R)-(3,5-dichloro-pyridin-2-ylcarbamoyl)-3-phenyl-propyl]amide] the “stability in rat serum” value (PAM1723) was “unstable in rat serum”.
For `NCCC[C@H](N)C(=O)N[C@H](CCc1ccccc1)C(=O)Nc1cc2ccccc2nn1` [Compound 39, 2-(S),5-Diamino-pentanoic acid [1-(R)-(cinnolin-3-ylcarbamoyl)-3-phenyl-propyl]-amide], the “stability in rat serum” value (PAM1723) was “unstable in rat serum”.
In the case of `C[C@H]1COc2c(N3CCN(C)CC3)c(F)cc3c(=O)c(C(=O)O)cn1c23` [Levofloxacin, reference compound], the Levo (MIC) ([1]; levofloxacin alone) is reported as 128 µg/mL, the Levo (MIC) (Citrobacter freundii 13; levofloxacin alone) is reported as 64 µg/mL and the Levo (MIC) (Klebsiella pneumonia 79; levofloxacin alone) is reported as 64 µg/mL. The Levo (MIC) (Klebsiella pneumonia 73; levofloxacin alone) was 64 µg/mL and the Levo (MIC) (Enterobacter cloacae 25; levofloxacin alone) was 2 µg/mL.
In the case of “L-phenylalanine-L-ornithine-α-naphtylamide [MC-207110, reference compound]”, the “EPI MPC8 after 4 hours at 37° C., Frozen Rat serum” value (PAM1723; Table 3, 50% rat serum) is reported as >80.
